Laboratory results published in patent US7332200B1, “Permeabilizing biofilms” (The General Hospital Corporation, priority 1999, dated 2008).

System: A. viscosus in biofilms
Test: Phototoxicity (bacterial killing, colony counts) of methylene blue on A. viscosus biofilms with red light, with or without a stress wave
Type: cell-based
Experimental: The biofilms were grown on enamel surfaces as described in Example 1. Biofilms were incubated with methylene blue for 1 or 5 minutes and exposed to stress waves (one pulse), after which they were exposed to 666 nm red light with a fluence of 15 J/cm^2 at an irradiance of 50 mW/cm^2. In control samples, biofilms were treated only with methylene blue, or were treated with methylene blue and exposed to red light, but without stress waves. An argon ion laser with an emission of 514.5. nm was used to pump a dye laser. The laser light was coupled into a 1.0 mm quartz fiber and appropriate spot sizes were created with an objective lens.
After illumination, adherent bacteria from the samples as treated above were scraped from the enamel surfaces with a sterile blade and dispersed in trypticase soy broth. Serial dilutions were prepared, and 100 μl aliquots were spread over the surfaces of blood agar plates. Survival fractions from each biofilm were calculated by counting the colonies on the plates and dividing by the number of colonies from dark controls incubated with the drug and kept at room temperature for periods equal to irradiation time. Other controls were: 1) biofilms untreated with methylene blue, light, or stress waves; 2) biofilms exposed only to a stress wave; 3) biofilms exposed to light without methylene blue; and 4) biofilms exposed to light after incubation with methylene blue.

## CN(C)c1ccc2nc3ccc(=[N+](C)C)cc-3sc2c1 [methylene blue]
five-minute incubation with 50 μg/ml methylene blue, red light, no stress wave
  bacteria associated with biofilms killed: 57%
five-minute incubation with 50 μg/ml methylene blue, stress wave (one pulse) and 666 nm red light 15 J/cm^2
  bacteria associated with biofilms killed: 99%
one-minute incubation with 50 μg/ml methylene blue, red light, no stress wave
  bacteria associated with biofilms killed: 34%
one-minute incubation with 50 μg/ml methylene blue, stress wave (one pulse) and red light
  bacteria associated with biofilms killed: 96.5%
